From patent US11377442B2, “Small molecule agonists and antagonists of NR2F6 activity” (ZANDER THERAPEUTICS, INC., priority 2016, dated 2022)
Like-named read-outs stand apart in the source and are kept apart here.

Key:
Renilla = Renilla signal in NR2F6 agonist screening, cmpd/DMSO; format: cell-based
NR2F6 = target: T1, NR2F6 (Homo sapiens, UniProt P10588); assay: NR2F6 agonist screening, Firefly signal cmpd/DMSO; format: cell-based
T1 construct: expressed in transfected cells; also transient transfection
T1 sequence (P10588 1-404): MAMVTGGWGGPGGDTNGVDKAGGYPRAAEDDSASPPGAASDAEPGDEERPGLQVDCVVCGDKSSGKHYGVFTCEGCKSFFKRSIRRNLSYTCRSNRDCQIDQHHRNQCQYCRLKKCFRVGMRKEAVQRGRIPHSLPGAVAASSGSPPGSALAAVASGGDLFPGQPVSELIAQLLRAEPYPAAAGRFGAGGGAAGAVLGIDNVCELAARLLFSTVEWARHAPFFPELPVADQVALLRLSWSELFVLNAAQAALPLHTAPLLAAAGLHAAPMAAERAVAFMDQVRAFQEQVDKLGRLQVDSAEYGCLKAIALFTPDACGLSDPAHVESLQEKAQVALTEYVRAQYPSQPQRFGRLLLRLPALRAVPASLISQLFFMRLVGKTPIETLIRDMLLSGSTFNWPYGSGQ

Cc1ccc(NC(=O)c2n[nH]c3c2CC(C)CC3)cc1C (stereo not shown) [Compound Z96]
NR2F6_full (stable, clone F4), cmpd/DMSO Renilla (Renilla; 2 uM): 1.3 | NR2F6_full (transient), cmpd/DMSO Renilla (Renilla; 2 uM): 1.0 | NR2F6_full (stable, clone F4), cmpd/DMSO Renilla (Renilla; 10 uM): 1.2 | NR2F6_full (transient), cmpd/DMSO Renilla (Renilla; 10 uM): 1.0 | NR2F6_full (stable, clone F4), cmpd/DMSO Renilla (Renilla; 40 uM): 1.2 | NR2F6_full (transient), cmpd/DMSO Renilla (Renilla; 40 uM): 0.9 | NR2F6_full (stable, clone F4), cmpd/DMSO Firefly (NR2F6; 2 uM): 2.9 | NR2F6_full (transient), cmpd/DMSO Firefly (NR2F6; 2 uM): 2.4 | NR2F6_full (stable, clone F4), cmpd/DMSO Firefly (NR2F6; 10 uM): 2.6 | NR2F6_full (transient), cmpd/DMSO Firefly (NR2F6; 10 uM): 2.3 | NR2F6_full (stable, clone F4), cmpd/DMSO Firefly (NR2F6; 40 uM): 2.6 | NR2F6_full (transient), cmpd/DMSO Firefly (NR2F6; 40 uM): 2.4

COc1ccc(-c2noc(Cn3ncccc3=O)n2)cc1 [Compound Z97]
NR2F6_full (stable, clone F4), cmpd/DMSO Renilla (Renilla; 2 uM): 1.1 | NR2F6_full (transient), cmpd/DMSO Renilla (Renilla; 2 uM): 1.0 | NR2F6_full (stable, clone F4), cmpd/DMSO Renilla (Renilla; 10 uM): 1.1 | NR2F6_full (transient), cmpd/DMSO Renilla (Renilla; 10 uM): 1.1 | NR2F6_full (stable, clone F4), cmpd/DMSO Renilla (Renilla; 40 uM): 1.2 | NR2F6_full (transient), cmpd/DMSO Renilla (Renilla; 40 uM): 1.1 | Firefly, cmpd/DMSO (mean) (NR2F6): 2.1 | NR2F6_full (stable, clone F4), cmpd/DMSO Firefly (NR2F6; 2 uM): 2.3 | NR2F6_full (transient), cmpd/DMSO Firefly (NR2F6; 2 uM): 2.4 | NR2F6_full (stable, clone F4), cmpd/DMSO Firefly (NR2F6; 10 uM): 2.2 | NR2F6_full (transient), cmpd/DMSO Firefly (NR2F6; 10 uM): 2.8 | NR2F6_full (stable, clone F4), cmpd/DMSO Firefly (NR2F6; 40 uM): 1.5 | NR2F6_full (transient), cmpd/DMSO Firefly (NR2F6; 40 uM): 2.3

CC(=O)Nc1ccc(Cl)c2nonc12 [Compound Z113]
Firefly, cmpd/DMSO (mean) (NR2F6): 1.0 | Firefly, cmpd/DMSO (mean) (NR2F6; Concentration 2): 1.3 | F4, cmpd/DMSO (mean) (NR2F6; Concentration 2): 1.2 | Firefly, cmpd/DMSO (mean) (NR2F6; Concentration 10): 1.1 | F4, cmpd/DMSO (mean) (NR2F6; Concentration 10): 1.5 | Firefly, cmpd/DMSO (mean) (NR2F6; Concentration 40): 0.9 | F4, cmpd/DMSO (mean) (NR2F6; Concentration 40): 1.2

COc1ccccc1-c1noc(Cn2nccc(Cl)c2=O)n1 [Compound Z134]
Firefly, cmpd/DMSO (mean) (NR2F6): 1.1

COc1ccccc1-c1noc(Cn2ncc(Cl)cc2=O)n1 [Compound Z135]
Firefly, cmpd/DMSO (mean) (NR2F6): 1.0

COc1cccc(-c2noc(Cn3ncc(C)c(C)c3=O)n2)c1 [Compound Z139]
Firefly, cmpd/DMSO (mean) (NR2F6): 1.5

COc1ccc(-c2noc(Cn3ncc(C)c(C)c3=O)n2)cc1 [Compound Z140]
Firefly, cmpd/DMSO (mean) (NR2F6): 1.2

COc1ccc(-c2noc(Cn3nccc(Cl)c3=O)n2)cc1 [Compound Z141]
Firefly, cmpd/DMSO (mean) (NR2F6): 1.8

COc1ccc(-c2noc(Cn3ncc(Cl)cc3=O)n2)cc1 [Compound Z142]
Firefly, cmpd/DMSO (mean) (NR2F6): 1.1

COc1ccccc1-c1noc(COc2nccc(C)n2)n1 [Compound Z149]
Firefly, cmpd/DMSO (mean) (NR2F6): 1.5

COc1ccccc1-c1noc(Cn2ncc(C)cc2=O)n1 [Compound Z150]
Firefly, cmpd/DMSO (mean) (NR2F6): 1.0

COc1ccccc1-c1noc(Cn2nccc(C)c2=O)n1 [Compound Z151]
Firefly, cmpd/DMSO (mean) (NR2F6): 1.1

COc1ccc(-c2noc(Cn3ncc(C)cc3=O)n2)cc1 [Compound Z152]
Firefly, cmpd/DMSO (mean) (NR2F6): 1.6

COc1ccc(-c2noc(Cn3nccc(C)c3=O)n2)cc1 [Compound Z153]
Firefly, cmpd/DMSO (mean) (NR2F6): 2.0
